In ChEMBL document CHEMBL5370605, “Discovery of Novel Fedratinib-Based HDAC/JAK/BRD4 Triple Inhibitors with Remarkable Antitumor Activity against Triple Negative Breast Cancer” (J Med Chem, 2023):

Key:
[1] = AUC (0 to t) in ICR (CD-1) mouse at 10 mg/kg, iv measured for 24 hrs by LC-MS/MS analysis; format: ADME, organism-based; set-up: dose 10 mg/kg, time 24 hrs, route iv; details: in vivo
[2] = molecular target: Histone deacetylase 4 (Homo sapiens, UniProt P56524); test: Inhibition of HDAC4 (unknown origin) using Boc-Lys-(trifluoroacetyl)-AMC as substrate incubated for 30 mins by fluorescence based analysis
[3] = AUC (0 to t) in ICR (CD-1) mouse at 50 mg/kg, ip measured for 24 hrs by LC-MS/MS analysis; format: ADME, organism-based; set-up: dose 50 mg/kg, time 24 hrs, route ip; details: in vivo
[4] = molecular target: T1, Protein deacetylase HDAC6 (Homo sapiens, UniProt Q9UBN7); test: Inhibition of HDAC6 (unknown origin) using Boc-Lys(Ac)-AMC as substrate incubated for 30 mins by fluorescence based analysis
T1 sequence (Q9UBN7 whole entry): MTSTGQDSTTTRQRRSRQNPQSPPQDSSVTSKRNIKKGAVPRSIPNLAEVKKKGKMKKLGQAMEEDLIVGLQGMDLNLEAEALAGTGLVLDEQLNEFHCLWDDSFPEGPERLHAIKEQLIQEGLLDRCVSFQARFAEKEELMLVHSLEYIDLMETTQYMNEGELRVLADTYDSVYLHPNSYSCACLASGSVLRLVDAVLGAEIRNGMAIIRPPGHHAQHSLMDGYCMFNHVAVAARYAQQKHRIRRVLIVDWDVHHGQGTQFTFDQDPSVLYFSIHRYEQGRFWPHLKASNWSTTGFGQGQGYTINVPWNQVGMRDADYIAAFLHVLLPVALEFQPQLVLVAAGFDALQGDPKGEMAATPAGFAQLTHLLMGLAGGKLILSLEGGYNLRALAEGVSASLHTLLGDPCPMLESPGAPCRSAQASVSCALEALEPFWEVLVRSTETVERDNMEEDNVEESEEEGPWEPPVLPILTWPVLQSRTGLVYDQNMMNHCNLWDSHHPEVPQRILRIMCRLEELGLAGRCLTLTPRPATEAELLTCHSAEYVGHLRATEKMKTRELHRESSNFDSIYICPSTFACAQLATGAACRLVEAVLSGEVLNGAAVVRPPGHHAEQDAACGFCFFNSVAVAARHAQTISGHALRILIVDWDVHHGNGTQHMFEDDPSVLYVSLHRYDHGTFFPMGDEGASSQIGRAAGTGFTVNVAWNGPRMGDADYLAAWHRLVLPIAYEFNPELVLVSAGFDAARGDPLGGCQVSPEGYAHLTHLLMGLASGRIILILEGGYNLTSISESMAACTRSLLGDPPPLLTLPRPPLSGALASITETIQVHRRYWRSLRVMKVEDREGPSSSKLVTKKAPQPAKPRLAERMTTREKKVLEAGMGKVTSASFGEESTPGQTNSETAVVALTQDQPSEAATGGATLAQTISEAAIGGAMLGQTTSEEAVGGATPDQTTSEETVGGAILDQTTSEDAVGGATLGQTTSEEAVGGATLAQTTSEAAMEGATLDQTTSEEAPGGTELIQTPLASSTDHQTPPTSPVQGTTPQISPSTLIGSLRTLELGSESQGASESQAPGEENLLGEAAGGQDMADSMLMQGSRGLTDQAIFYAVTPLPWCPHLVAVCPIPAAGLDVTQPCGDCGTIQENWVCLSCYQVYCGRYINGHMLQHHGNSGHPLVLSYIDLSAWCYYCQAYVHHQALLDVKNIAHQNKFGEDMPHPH

[5] = Metabolic stability in mouse liver microsomes assessed as intrinsic clearance in presence of NADPH by LC-MS/MS analysis; format: ADME, Microsome; details: read-out: CLH
[6] = molecular target: T2, Histone deacetylase 8 (Homo sapiens, UniProt Q9BY41); test: Inhibition of HDAC8 (unknown origin) using Boc-Lys-(trifluoroacetyl)-AMC as substrate incubated for 30 mins by fluorescence based analysis
T2 sequence (Q9BY41 whole entry): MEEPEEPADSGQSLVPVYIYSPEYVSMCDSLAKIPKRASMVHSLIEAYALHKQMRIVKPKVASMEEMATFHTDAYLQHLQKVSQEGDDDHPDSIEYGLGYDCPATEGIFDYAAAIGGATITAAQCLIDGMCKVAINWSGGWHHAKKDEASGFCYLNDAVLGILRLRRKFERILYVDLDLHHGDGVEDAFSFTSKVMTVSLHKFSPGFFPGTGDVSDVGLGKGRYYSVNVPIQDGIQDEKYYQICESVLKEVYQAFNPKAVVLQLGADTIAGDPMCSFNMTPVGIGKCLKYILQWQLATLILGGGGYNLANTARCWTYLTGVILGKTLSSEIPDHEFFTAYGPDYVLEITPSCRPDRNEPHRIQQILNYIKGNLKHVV

[7] = Half life in ICR (CD-1) mouse at 10 mg/kg, iv measured for 24 hrs by LC-MS/MS analysis; format: ADME, organism-based; details: in vivo
[8] = molecular target: T3, Histone deacetylase 11 (Homo sapiens, UniProt Q96DB2); test: Inhibition of HDAC11 (unknown origin) using Ac-ETDKrnyr-AMC as substrate incubated for 30 mins by fluorescence based analysis
T3 sequence (Q96DB2 whole entry): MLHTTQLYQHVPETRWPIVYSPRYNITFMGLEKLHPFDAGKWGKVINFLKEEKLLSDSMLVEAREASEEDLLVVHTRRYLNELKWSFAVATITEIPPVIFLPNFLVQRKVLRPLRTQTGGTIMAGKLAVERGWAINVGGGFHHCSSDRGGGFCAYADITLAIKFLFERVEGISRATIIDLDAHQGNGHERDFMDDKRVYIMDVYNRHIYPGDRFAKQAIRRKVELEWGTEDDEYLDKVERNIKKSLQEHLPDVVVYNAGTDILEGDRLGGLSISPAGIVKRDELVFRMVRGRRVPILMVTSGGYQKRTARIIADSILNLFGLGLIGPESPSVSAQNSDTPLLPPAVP

[9] = molecular target: Non-receptor tyrosine-protein kinase TYK2 (Homo sapiens, UniProt P29597); test: Inhibition of TYK2 (unknown origin) incubated for 40 mins in presence of ATP by Kinase-glo luminescent assay
[10] = Tmax in ICR (CD-1) mouse at 50 mg/kg, ip measured for 24 hrs by LC-MS/MS analysis; format: ADME, organism-based; details: in vivo
[11] = Toxicity in athymic BALB/c nude mouse xenografted with human MDA-MB-231 cells assessed as reduction in body weight at 25 to 50 mg/kg/day, ip administered for 28 consecutive days; format: organism-based; details: in vivo, 672 h, dose 25-50 mg/kg/day, time 28 day
[12] = Cmax in ICR (CD-1) mouse at 10 mg/kg, iv measured for 24 hrs by LC-MS/MS analysis; format: ADME, organism-based; set-up: time 24 hrs, dose 10 mg/kg, route iv; details: in vivo
[13] = Metabolic stability in mouse liver microsomes assessed as half life in presence of NADPH by LC-MS/MS analysis; format: ADME, Microsome
[14] = tested on: GES1; test: Cytotoxicity against human GES1 cells at 1 uM incubated for 48 hrs by MTT assay; format: toxicity, cell-based; details: ges1, 48 h

Chain of Histone deacetylase 4 (P56524 whole entry): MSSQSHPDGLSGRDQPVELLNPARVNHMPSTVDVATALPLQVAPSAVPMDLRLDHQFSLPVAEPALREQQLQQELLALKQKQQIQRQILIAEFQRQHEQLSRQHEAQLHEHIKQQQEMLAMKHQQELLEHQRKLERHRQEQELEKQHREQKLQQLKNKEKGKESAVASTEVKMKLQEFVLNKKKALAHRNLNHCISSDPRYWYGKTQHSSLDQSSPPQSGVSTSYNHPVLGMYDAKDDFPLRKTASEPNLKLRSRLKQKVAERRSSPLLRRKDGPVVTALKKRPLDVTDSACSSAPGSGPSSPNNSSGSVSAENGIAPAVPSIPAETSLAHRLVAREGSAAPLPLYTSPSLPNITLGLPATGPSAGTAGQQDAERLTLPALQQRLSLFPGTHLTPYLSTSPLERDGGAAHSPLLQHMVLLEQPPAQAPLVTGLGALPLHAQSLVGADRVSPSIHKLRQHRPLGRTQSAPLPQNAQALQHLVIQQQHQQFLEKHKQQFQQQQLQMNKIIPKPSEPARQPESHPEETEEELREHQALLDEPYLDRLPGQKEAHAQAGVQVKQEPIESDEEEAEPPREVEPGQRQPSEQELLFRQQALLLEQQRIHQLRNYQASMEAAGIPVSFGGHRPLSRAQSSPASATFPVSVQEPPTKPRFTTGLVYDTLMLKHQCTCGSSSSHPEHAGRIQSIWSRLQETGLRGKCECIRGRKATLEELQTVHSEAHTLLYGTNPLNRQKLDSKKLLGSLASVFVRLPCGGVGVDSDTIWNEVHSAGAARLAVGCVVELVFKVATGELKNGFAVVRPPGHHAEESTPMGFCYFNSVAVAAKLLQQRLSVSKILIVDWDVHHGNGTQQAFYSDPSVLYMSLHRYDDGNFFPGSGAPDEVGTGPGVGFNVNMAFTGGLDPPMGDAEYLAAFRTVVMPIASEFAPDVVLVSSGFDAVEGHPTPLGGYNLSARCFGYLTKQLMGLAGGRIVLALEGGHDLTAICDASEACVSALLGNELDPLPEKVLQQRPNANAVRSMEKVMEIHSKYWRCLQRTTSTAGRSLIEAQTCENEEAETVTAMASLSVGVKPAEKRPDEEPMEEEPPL
Chain of Non-receptor tyrosine-protein kinase TYK2 (P29597 whole entry): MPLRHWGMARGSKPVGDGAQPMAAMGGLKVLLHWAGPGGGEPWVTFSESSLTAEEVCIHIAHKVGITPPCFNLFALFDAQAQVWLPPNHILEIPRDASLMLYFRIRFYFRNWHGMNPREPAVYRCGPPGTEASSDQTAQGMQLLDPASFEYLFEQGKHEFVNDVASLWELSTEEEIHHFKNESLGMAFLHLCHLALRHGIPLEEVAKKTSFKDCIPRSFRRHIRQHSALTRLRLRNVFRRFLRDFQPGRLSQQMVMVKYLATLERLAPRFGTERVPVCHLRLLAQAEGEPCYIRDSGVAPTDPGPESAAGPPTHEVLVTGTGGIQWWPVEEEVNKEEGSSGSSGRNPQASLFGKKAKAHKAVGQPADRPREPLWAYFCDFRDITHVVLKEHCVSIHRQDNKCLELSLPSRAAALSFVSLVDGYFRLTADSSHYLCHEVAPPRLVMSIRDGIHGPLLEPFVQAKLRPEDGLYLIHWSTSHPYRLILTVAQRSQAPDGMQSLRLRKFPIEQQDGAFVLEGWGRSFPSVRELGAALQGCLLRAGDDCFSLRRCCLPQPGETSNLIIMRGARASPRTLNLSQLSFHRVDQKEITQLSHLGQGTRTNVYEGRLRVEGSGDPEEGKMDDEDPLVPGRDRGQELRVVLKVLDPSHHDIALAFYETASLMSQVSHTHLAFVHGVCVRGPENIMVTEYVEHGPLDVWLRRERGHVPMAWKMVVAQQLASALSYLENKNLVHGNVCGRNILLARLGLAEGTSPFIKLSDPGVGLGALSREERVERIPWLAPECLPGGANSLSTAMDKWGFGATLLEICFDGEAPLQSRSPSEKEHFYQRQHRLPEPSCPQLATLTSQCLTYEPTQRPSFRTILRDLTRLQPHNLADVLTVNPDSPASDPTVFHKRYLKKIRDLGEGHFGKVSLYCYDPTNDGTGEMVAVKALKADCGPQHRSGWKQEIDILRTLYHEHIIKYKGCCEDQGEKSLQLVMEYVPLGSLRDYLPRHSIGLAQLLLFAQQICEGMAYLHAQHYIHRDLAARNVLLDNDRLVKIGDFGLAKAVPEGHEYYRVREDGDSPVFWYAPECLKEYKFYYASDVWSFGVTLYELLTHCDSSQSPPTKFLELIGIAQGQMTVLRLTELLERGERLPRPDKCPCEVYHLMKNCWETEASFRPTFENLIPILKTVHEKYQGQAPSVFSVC

Cc1cnc(Nc2ccc(OCCN3CCCC3)cc2)nc1Nc1ccc(C(=O)NO)cc1
AUCt [1]: 1951 ng·h/mL | IC50 [2]: > 5000 nM | AUC(0-t) at 24 h [3]: 14800 ng·h/mL | IC50 [4]: 270 nM | CLint scaled [5]: 146 mL/min/kg | IC50 [6]: 160 nM | t1/2 [7]: 89.4 min | IC50 [8]: > 5000 nM | IC50 [9]: 99 nM | Tmax [10]: 11.4 min | Activity [11]: Non-Toxic | Cmax [12]: 4730 ng/mL | half-life [13]: 37.5 min | Activity [14]: Non-Toxic
